US20220304945A1, “METHODS OF TREATING METABOLIC SYNDROME RELATED CONDITIONS USING RETINOIC ACID RECEPTOR AGONISTS” (Cornell University, priority 2014, published 2022)
“Also recorded” adds a separate entry of the source.

What was measured:
Assay type in all cases: in vivo, mouse
c-peptide = experiment: c-peptide/glucagon immunofluorescence of pancreatic islets, HF-fed mice; conditions: HF diet mice 4 months; vs HF diet
Experimental: Indirect Immunofluorescence. Immunofluorescence assays on cells and tissue sections were performed as previously described (29). Briefly, differentiated samples were fixed using 4% (w/v) paraformaldehyde and membrane permeabilization (for cells only) was done with 0.3% (w/v) Triton-X 100 (Sigma). Unspecific sites were blocked using 2% BSA for 30 min prior to incubation with rabbit polyclonal anti-PDX1 (Millipore, 06-1379, 1:1000), rabbit anti-C-Peptide (Cell Signaling, 4593, 1:500, Danvers, Mass.) and mouse monoclonal anti-Glucagon (Abcam, ab10988, 1:200) primary antibodies. Phalloidin-TRITC (Millipore, FAK100, 1:1000, Billerica, Mass.) was used to stain the actin stress fiber network (F-actin). Nuclei were stained using DAPI contained in Vectashield® mounting medium for fluorescence (Vector labs, Burlingame, Calif.). Quantitation of C-peptide positive stained cells and islet surface area was performed using NIS-Elements Advanced Research software (Nikon).
Mice, diet, and drug treatment. WT male C57/BL6 male mice were maintained on either a standard laboratory chow-fed diet (CFD) with 13% kcal fat, (diet #5053, Lab Diet, Inc, St. Louis, Mo.) or a high fat, western style diet (HFD) with 60% kcals from fat, (diet #58126, Lab Diet, Inc., St. Louis, Mo.) for 4 months. […]

RARβ2 mRNA = experiment: Semi-quantitative PCR of pancreas, HF-fed mice; conditions: HF diet mice; vs HF-vehicle
From the text: Mice, diet, and drug treatment. WT male C57/BL6 male mice were maintained on either a standard laboratory chow-fed diet (CFD) with 13% kcal fat, (diet #5053, Lab Diet, Inc, St. Louis, Mo.) or a high fat, western style diet (HFD) with 60% kcals from fat, (diet #58126, Lab Diet, Inc., St. Louis, Mo.) for 4 months. One month after the start of the high fat diet treatment, the high fat diet group was further split into 2 groups for 3 months: i) high fat diet and the drinking water containing 1% DMSO; ii) high fat diet and the drinking water containing 1.5 mg/100 ml AC261066, a specific RARβ agonist. Then mice were sacrificed by cervical dislocation. Blood and various tissue samples were harvested.
Semi-Quantitate PCR. Total RNA was extracted from mouse tissues using TRIzol reagent (Life technologies) and (1 μg) was used to synthesize cDNA. cDNA synthesis was performed at 42° C. for 1 h in a final volume of 20 μl using qScript (Quanta, MD). Semi-quantitative PCR were performed Taq DNA polymerase (Invitrogen, CA). Three step PCR was run as follows: 94° C. for 30 s, 58-64° C. for 45 s for primer annealing and 72° C. for 1 min for primer extension. The number of cycles for each primer pair for amplification in the linear range was determined experimentally. PCR products were resolved on 2% agarose gels and visualized by staining with ehtidium bromide. […]

[1] = system: renal stellate cells (RSCs); experiment: Double immunofluorescence (vimentin, α-SMA) of renal stellate cells in Db/Db mice; conditions: Db/Db mice treated for 4 weeks
From the text: Retinoic Acid Receptor β (RARβ) Agonists Diminish The Activation of Fibrogenic Kidney Stellate Cells. Given that we observed a significant decrease in mRNA transcripts of α-SMA we measured kidney protein expression of α-SMA in fibrogenic renal stellate cells Renal stellate cells (RSCs) are resident kidney fibroblasts, which in response to inflammation undergo differentiation to “activated” myofibroblasts that secrete contractile proteins such as α-SMA. […] RSCs express the mesenchymal protein marker vimentin. We used double immunofluorescence to label RSCs and determine the percentage of activated RSCs expressing the fibrogenic protein α-SMA. Using Db/Db mice, which spontaneously diabetes and DN in a similar manner to humans, we detected more than a 4-fold increase in activated α-SMA positive RSCs compared to wt con mice (FIG. 33F, G). Db/Db mice treated with AC261066 for 4 weeks had more than a 50% reduction in α-SMA positive RSCs (FIG. 33F, G).
METHODS. Immunofluorescence and Immunostaining Microscopy-Paraffin embedded pancreatic tissue sections were incubated with antibodies against: insulin (mouse monoclonal 1:300, #1061, Beta Cell Biology Consortium), vimentin (rabbit polyclonal 1:500, Santa Cruz), or α-SMA (mouse monoclonal, 1:1000, Dako, Inc).

[2] = system: HF-fed and genetically obese mice; experiment: Tissue triglyceride analysis and H and E staining of liver, pancreas, kidney, muscle, adipose tissue
From the text: Mice, diet, and drug treatment. Dietary Obesity Studies: Wild type (wt) male C57/BL6 male mice were maintained on either a standard laboratory chow-fed diet (Con) with 13% kcal fat, (diet #5053, Lab Diet, Inc, St. Louis, Mo.) or a high fat, western style diet (HFD) with 45% kcals from fat, (diet #58126, Lab Diet, Inc., St. Louis, Mo.) for 4 months. One month after the start of the HFD treatment, the Con and HFD groups werefurther split into 3 additional groups for […] to: i) remain on either Con or HFD and the drinking water containing 1% DMSO; ii) Con or HFD and drinking water containing 3.0 mg/100 ml AC261066, a specific RARβ agonist in 1% DMSO, or iii) Con or HFD and drinking water containing 3.0 mg/100 ml of AC55649, another specific RARβ agonist in 1% DMSO. All mice remained on their diets for 4 months. […]
Tissue Triglyceride Analysis: Total tissue lipids were extracted from using the Folch method. […] Tissue triglycerides were determined enzymatically using Triglycerides Reagent kit (Invitrogen, Life Technologies, Carlsbad, Calif., USA) according to the manufacture's protocol. Tissue triglycerides were normalized to tissue protein concentrations and reported as mean±standard error of the mean (S.E.M) and P-values were calculated using one-way analysis of variance followed by Bonferroni multiple comparison test post-hoc analysis.

SMILES: CCCCOCCOc1nc(-c2ccc(C(=O)O)c(F)c2)sc1C [AC261066]
- c-peptide level in pancreatic islets (c-peptide): slightly reduces; also recorded: slightly decreased
- pancreatic RARβ2 mRNA level (RARβ2 mRNA): increased
- reduction in α-SMA positive RSCs [1]: > 50%
- accumulation of liver, pancreas, kidney, muscle and adipose triglycerides [2]: reduces
